According to ChEMBL document CHEMBL1201862, “PubChem BioAssay data set” (2004):
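Protocol summary: plate cells (96-well), add compound at 5 concentrations, incubate 48 h, interpolate endpoints linearly. At the GI50, growth is halved.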 Active and inactive are the calls of the source. Cut-off read from the data, not from the text of the source: active = GI50 up to about 1.1 µM and inactive = higher.

Legend:
Assay in all cases: NCI tumour cell line growth inhibition, 48 h
786-0 = system: 786-0
ACHN = system: ACHN
CCRF-CEM = system: CCRF-CEM
HCC 2998 = system: HCC 2998
HCT-116 = system: HCT-116
HCT-15 = system: HCT-15
K562 = system: K562
KM12 = system: KM12
MOLT-4 = system: MOLT-4
NCI-H23 = system: NCI-H23
OVCAR-8 = system: OVCAR-8
SF-268 = system: SF-268
SN12C = system: SN12C
SNB-75 = system: SNB-75
LOX IMVI = system: LOX IMVI
NCI-H226 = system: NCI-H226
UO-31 = system: UO-31

## COC(=O)[C@@]12C=CC(=O)[C@H]3C[C@@H](C(C(C)C)C1)[C@]32OC (stereo not given in full)
786-0
  GI50: > 100 µM (inactive)
ACHN
  GI50: > 100 µM (inactive)
CCRF-CEM
  GI50: > 100 µM (inactive)
HCC 2998
  GI50: > 100 µM (inactive)
HCT-116
  GI50: > 100 µM (inactive)
HCT-15
  GI50: > 100 µM
K562
  GI50: > 100 µM (inactive)
KM12
  GI50: > 100 µM (inactive)
MOLT-4
  GI50: > 100 µM (inactive)
NCI-H23
  GI50: > 100 µM (inactive)
OVCAR-8
  GI50: > 100 µM (inactive)
SF-268
  GI50: > 100 µM (inactive)
SN12C
  GI50: > 100 µM (inactive)
SNB-75
  GI50: > 100 µM (inactive)

## N#Cc1ccccc1Nc1ccccc1S
786-0
  GI50: 20.9 µM (inactive)
ACHN
  GI50: 51.1 µM (inactive)
CCRF-CEM
  GI50: 6.68 µM (inactive)
K562
  GI50: 26 µM (inactive)
KM12
  GI50: 38.2 µM (inactive)
LOX IMVI
  GI50: 17.5 µM (inactive)
MOLT-4
  GI50: 5.4 µM (inactive)
NCI-H226
  GI50: 22.4 µM (inactive)
NCI-H23
  GI50: 37.8 µM (inactive)
OVCAR-8
  GI50: 31.6 µM (inactive)
SF-268
  GI50: 31.3 µM (inactive)
SN12C
  GI50: 31 µM (inactive)
UO-31
  GI50: 28.2 µM (inactive)

## CC1(C)SCc2nc3ncccc3n21
786-0
  GI50: > 100 µM (inactive)
ACHN
  GI50: > 100 µM (inactive)
CCRF-CEM
  GI50: > 100 µM (inactive)
HCC 2998
  GI50: > 100 µM (inactive)
HCT-15
  GI50: > 100 µM
K562
  GI50: > 100 µM (inactive)
KM12
  GI50: > 100 µM (inactive)
LOX IMVI
  GI50: > 100 µM (inactive)
MOLT-4
  GI50: > 100 µM (inactive)
NCI-H226
  GI50: > 100 µM (inactive)
NCI-H23
  GI50: > 100 µM (inactive)
OVCAR-8
  GI50: > 100 µM (inactive)
SF-268
  GI50: > 100 µM (inactive)
SN12C
  GI50: > 100 µM (inactive)
SNB-75
  GI50: > 100 µM (inactive)
UO-31
  GI50: > 100 µM (inactive)

## CCN(CC)CCNc1ccc2nc(C)n3c4ccc(O)cc4c(=O)c1c23
786-0
  GI50: 0.381 µM (active)
ACHN
  GI50: 0.231 µM (active)
HCC 2998
  GI50: 0.552 µM (active)
HCT-116
  GI50: 0.357 µM (active)
HCT-15
  GI50: 0.64 µM
K562
  GI50: 1.48 µM (inactive)
KM12
  GI50: 3.02 µM (inactive)
LOX IMVI
  GI50: 0.71 µM (active)
MOLT-4
  GI50: 0.0447 µM (active)
NCI-H226
  GI50: 0.16 µM (active)
OVCAR-8
  GI50: 0.371 µM (active)
SF-268
  GI50: 0.481 µM (active)
SN12C
  GI50: 0.618 µM (active)
SNB-75
  GI50: 1.09 µM (active)
UO-31
  GI50: 1.94 µM (inactive)

## Cc1ccc(C(=O)NC2CCCCC2)cc1/N=N/N(C)C
786-0
  GI50: > 100 µM (inactive)
ACHN
  GI50: > 100 µM (inactive)
HCC 2998
  GI50: > 100 µM (inactive)
HCT-116
  GI50: > 100 µM (inactive)
HCT-15
  GI50: > 100 µM
KM12
  GI50: > 100 µM (inactive)
LOX IMVI
  GI50: > 100 µM (inactive)
NCI-H23
  GI50: > 100 µM (inactive)
OVCAR-8
  GI50: > 100 µM (inactive)
SF-268
  GI50: 44.9 µM (inactive)
SN12C
  GI50: > 100 µM (inactive)
UO-31
  GI50: > 100 µM (inactive)
